“Also recorded” adds a separate entry of the source. Where two headings read alike, the source gives them in different places. Each block holds one molecule with its values, some of them ahead of it.
Experiments:
HCT116 = experiment: Growth inhibition assay (MTT), HCT116; format: cell-based; details: Homo sapiens
Description: (§1) The compounds of the invention were subjected to growth inhibition assay. Cells were seeded in 96-well plastic plates and exposed to the compounds of the invention for 72 hours. Cell viability was assessed using the 3-(4,5-dimethylthiazol-2-yl)-2,5-diphenyltetrazolium bromide assay.

DU145 = experiment: Growth inhibition assay (MTT), DU145; format: cell-based; details: Homo sapiens
Description: as §1

PC3 = experiment: Growth inhibition assay (MTT), PC3; format: cell-based; details: Homo sapiens
Description: as §1

MCF-7 = experiment: Growth inhibition assay (MTT), MCF-7; format: cell-based; details: Homo sapiens
Description: as §1

N87 = experiment: Growth inhibition assay (MTT), N87; format: cell-based
Description: as §1

LNCap = experiment: Growth inhibition assay (MTT), LNCap; format: cell-based; details: Homo sapiens
Description: as §1

HT29 = experiment: Growth inhibition assay (MTT), HT29; format: cell-based; details: Homo sapiens
Description: as §1

MKN45 = experiment: Growth inhibition assay (MTT), MKN45; format: cell-based; details: Homo sapiens
Description: as §1

Panc-1 = experiment: Growth inhibition assay (MTT), Panc-1; format: cell-based; details: Homo sapiens, Panc-1, Pancreatic cancer, 72 hours
Description: as §1

MIAPACA = experiment: Growth inhibition assay (MTT), MIAPACA; format: cell-based; details: Homo sapiens, MIA PaCa-2, 72 hours
Description: as §1

[1] = Metabolic stability in human liver microsomes; format: in vitro ADME; details: FIG. 3
[2] = Pharmacokinetic study (PK), i.v. in rats; format: in vivo; details: 2 mg/kg i.v.
Description: 2 mg/kg of niclosamide (MPT0L166) and MPT0L167, MPT0L180 and MPT0L196 were each independently given to five rats by i.v. The blood samples were taken from the rats after 0.03 hour, 0.08 hour, 0.25 hour, 0.5 hour, 1 hour, 2 hours, 4 hours, 6 hour, 8 hours and 24 hours. LC-MS/MS was used to detect the concentration of MPT0L167 in blood.

[3] = test system: Zika virus (PRVABC59 strain); experiment: Zika animals study; format: in vivo
Description: The Zika sensitive female mice: ROSA, STAT1^−/− strain was used. MPT0L167 was used to pre-treat the mice for one day. 4*10^7 cells (U-87 MG human glioblastoma cell with infection with Zika virus (PRVABC59 strain)) were injection in mice. After infection, MPT0L167 was administered with 100 mg/kg to the mice by po,qd. The virus detection in serum at day 3. The concentration of virus in serum was detected by Viralplaque assays.

[4] = test system: human HCT116 colorectal cancer; experiment: Human colorectal cancer HCT116 xenograft model; format: in vivo; details: oral, female nude mice; for body weight: FIG. 2(B)
From the text: (§2) Anti-cancer Activity Evaluation of the Compounds of the Invention (MPT0L167 and MPT0L179) Against Human MDA-MB-231 Breast Cancer in MDA-MB-231 Xenograft Animal Model and Human Colorectal Cancer HCT116 Xenograft Model […] This study utilized five groups of mice (n=7-8) bearing established human HCT116 colorectal cancer with mean volumes of ˜200 mm^3.

[5] = test system: human MDA-MB-231 breast adenocarcinoma; experiment: MDA-MB-231 xenograft animal model; format: in vivo; details: oral, female nude mice; for body weight: FIG. 1(B)
From the text: as §2, with “MDA-MB-231 breast adenocarcinoma” for “HCT116 colorectal cancer”, “˜250” for “˜200”

[6] = Metabolic stability in rat liver microsomes; format: in vitro ADME; details: FIG. 3
[7] = Metabolic stability in dog liver microsomes; format: in vitro ADME; details: FIG. 3
[8] = HCT-116, HCT116, Colon cancer, 72 hours, MTT, read-out: IC50
[9] = DU-145, DU145, Prostate cancer, 72 hours, MTT, read-out: IC50
[10] = PC-3, PC3, Prostate cancer, 72 hours, MTT, read-out: IC50
[11] = MCF7, MCF-7, Breast cancer, 72 hours, MTT, read-out: IC50
[12] = N87, Gastric cancer, 72 hours, MTT, read-out: IC50
[13] = LNCap, Prostate cancer, 72 hours, MTT, read-out: IC50
[14] = HT-29, HT29, Colon cancer, 72 hours, MTT, read-out: IC50
[15] = MKN-45, MKN45, Gastric cancer, 72 hours, MTT, read-out: IC50

melting point: 172.4 to 174 °C
SMILES: O=C(Nc1ccc([N+](=O)[O-])c(C(F)(F)F)c1)c1cc(Cl)ccc1O

IC50 (HCT116; [8]): > 50 µM | IC50 (DU145; [9]): > 25 µM | IC50 (PC3; [10]): > 25 µM | IC50 (MCF-7; [11]): > 25 µM | IC50 (LNCap; [13]): 2.44 µM | melting point: 195.5 to 197.2 °C | IC50 (HT29; [14]): > 50 µM | IC50 (MKN45; [15]): > 25 µM
SMILES: CC(=O)OCOc1ccc(Cl)cc1C(=O)Nc1ccc([N+](=O)[O-])cc1Cl [MPT0L180, Acetic acid 4-chloro-2-(2-chloro-4-nitro-phenylcarbamoyl)-phenoxymethyl ester]
IC50 (N87; [12]): > 25 µM

IC50 (Panc-1): 0.43 µM | IC50 (MIAPACA): 1.17 µM | IC50 (HCT116; [8]): 5.64 µM | IC50 (DU145; [9]): > 10 µM | IC50 (PC3; [10]): 1.04 µM | IC50 (MCF-7; [11]): 3.69 µM | IC50 (LNCap; [13]): 0.97 µM | IC50 (HT29; [14]): 31.1 µM | IC50 (MKN45; [15]): > 25 µM
SMILES: O=C(Nc1ccc([N+](=O)[O-])cc1Cl)c1cc(Cl)ccc1O [#166, niclosamide, reference compound]
IC50 (N87; [12]): 0.14 µM

SMILES: O=C(Nc1ccc([N+](=O)[O-])cc1Cl)c1cc(Cl)ccc1OC(=O)N1CCC(N2CCCCC2)CC1 [MPT0L196, [1,4′]Bipiperidinyl-1′-carboxylic acid 4-chloro-2-(2-chloro-4-nitro-phenylcarbamoyl)-phenyl ester]
IC50 (HCT116; HCT-116, 72 h): > 50 µM | IC50 (DU145; DU-145, 72 h): > 25 µM | IC50 (PC3; PC-3, 72 h): > 25 µM | IC50 (MCF-7; MCF7, 72 h): > 25 µM | IC50 (N87; 72 h): > 25 µM | IC50 (LNCap; LNCaP, 72 h): > 25 µM | melting point: 216.3 to 217.9 °C | IC50 (HT29; HT-29, 72 h): > 50 µM | IC50 (MKN45; MKN-45, 72 h): > 25 µM

SMILES: O=C(Nc1ccc([N+](=O)[O-])cc1Cl)c1cc(Cl)ccc1OC1OC(CO)C(O)C(O)C1O (centres unmarked) [MPT0L167, 5-Chloro-N-(2-chloro-4-nitro-phenyl)-2-(3,4,5-trihydroxy-6-hydroxymethyl-tetrahydro-pyran-2-yloxy)-benzamide]
IC50 (HCT116; [8]): > 50 µM | IC50 (DU145; [9]): > 25 µM | metabolic stability compared with MPT0L166 [1]: more stable than MPT0L166 | half-life in vivo compared with niclosamide (MPT0L166) [2]: longer half-life than MPT0L166 | AUC % Extrap obs ([2]; mean): 1.15% | AUC(0-inf) ([2]; rat, blood, iv, mean): 587 ng·h/mL | AUC(0-t) ([2]; rat, blood, iv, mean): 580 ng·h/mL | Cmax ([2]; rat, blood, iv, mean): 3880 ng/mL | MRT inf ([2]; rat, blood, iv, mean): 1.4 h | Tmax ([2]; rat, blood, iv, mean): 1.8 min | half-life ([2]; rat, blood, iv, mean): 7.38 h | clearance ([2]; rat, blood, iv, mean, read-out: CL obs (converted)): 59.1 mL/min/kg | Vd ([2]; rat, blood, iv, mean, read-out: VZ obs): 37.3 L/kg | IC50 (PC3; [10]): > 25 µM | IC50 (MCF-7; [11]): > 25 µM | concentration of virus in serum (Viralplaque assays) ([3]; female ROSA, STAT1−/− mice, 100 mg/kg po,qd, serum at day 3, FIG. 4(A)): inhibition of Zika virus infection; also recorded: significantly inhibits Zika virua growth | body weight ([3]; mouse, in vivo, po, 100 mg/kg): does not significant reduce body weight; also recorded: not significantly changed | IC50 (N87; [12]): > 25 µM | IC50 (LNCap; [13]): > 25 µM | melting point: 212.6 to 213.2 °C | tumor volume ([4]; FIG. 2(A)): significantly reduces tumor volume | body weight [4]: does not significantly reduce body weight | body weight ([4]; listed as MPLOL167): did not exhibit significant change | tumor volume ([5]; FIG. 1(A)): significantly reduces tumor volume | body weight [5]: does not significantly reduce body weight | body weight ([5]; listed as MPLOL167): did not exhibit significant change | metabolic stability compared with MPT0L166 [6]: more stable than MPT0L166 | metabolic stability compared with MPT0L166 [7]: more stable than MPT0L166 | IC50 (HT29; [14]): > 50 µM | IC50 (MKN45; [15]): > 25 µM
